Two molecules from PMC12735872, “Development of ^18F/^11C-Labeled Pyrrolo-Pyridine/Pyrimidine LRRK2 Selective PET Radioligands” (Pharmaceuticals, 2025) can be followed below.

Read-outs that look alike come from different tables or passages of the source.

In one data set the target is T1, LRRK2 (Homo sapiens, UniProt Q5S007).
T1 construct: Human brains without pathological findings were acquired from the National Institute of Forensic Medicine; from tissue; host or cells: human post-mortem control brain, whole-hemisphere sections (100 µm)
In words: In vitro autoradiography, human whole-hemisphere brain slices. The format is binding. To be noted: human brain slices, baseline. How it is done: Human brains without pathological findings were acquired from the National Institute of Forensic Medicine at Karolinska Institutet in Stockholm, Sweden. These brains were obtained during forensic autopsies (designated as control brain) and were processed in a manner like previously described methods. […] The brain was removed, and its tissues were kept in −85 °C until the sectioning process. The whole brain hemispheric slices were subsequently maintained at −25 °C until the commencement of autoradiography procedures. […] The sectioning of the brain and the autoradiography experiments were performed at the Psychiatry section, Department of Neuroscience, Karolinska Institutet, Sweden.
Whole brain hemispheres were sectioned into horizontal slices with a thickness of 100 µm using a Leica cryomacrocut system. The autoradiographic procedures followed the same protocols established in previous studies conducted in our laboratory. The whole-hemisphere sections of 100 micron thickness were incubated for 90 min at room temperature with their corresponding radiotracer (4 MBq/200 mL) in TRIS buffer (pH 7.4) containing sodium chloride (120 mM), potassium chloride (5 mM), calcium chloride (2 mM), and albumin (0.1% w/v). After incubation, sections were washed three times in the same buffer at room temperature for five minutes each, briefly dipped in ice-cold distilled water, dried, and then placed in the phosphor imaging plates. Binding density standards were prepared by serial dilution of the radioligand stock solution in the assay buffer. Readings were taken with the Fujifilm BAS-5000 (Fujifilm, Tokyo, Japan), while quantitative analysis was conducted with the Multi Gauge 3.2 image analysis software (Fujifilm, Tokyo, Japan). For blocking experiments, adjacent brain sections were co-incubated with LuAF66583 (0.1 µM or 10 µM).

Data set [1] is described as follows: Plasma protein binding by ultrafiltration. To be noted: cynomolgus monkey, pH 7.4, NHP plasma, baseline. It counts as in vitro ADME, non-human primate (NHP). How it is done:
The plasma protein binding of all three radioligands was determined in duplicate at the baseline condition according to a previously published method. For each blood plasma sample, 500 μL of non-human primate (NHP) blood plasma was used with 50 μL PBS (pH 7.4 containing KCl 0.2 mg, KH2PO4 0.2 mg, Na2HPO4 1.42 mg, and NaCl 8 mg per mL). The mixture included around 20 MBq of the corresponding radioligand in PBS. Samples underwent incubation at room temperature for 10 min. A small aliquot (20 µL) was taken from each mixture, and radioactivity measurements were performed using a well counter. From each mixture, 200 µL was placed into ultrafiltration tubes (Millipore Centrifree YM-30) and centrifuged at 3000 rpm for 15 minutes. The remaining filtrates were analyzed and aliquots (20 µL) were counted in the well counter described earlier. Protein-bound fractions were calculated as follows:(1) C⥂pla (filtrate) /Cpla (total) ÷CPBS (filtrate) /CPBS (total) ×100(%)
Cpla (total) represents the radioactivity concentration of incubation mixture in plasma and CPBS (total) represents the radioactivity concentration of incubation mixture in PBS. Cpla (filtrate) and CPBS (filtrate) are the radioactivity concentrations from filtrate samples.

Setting [2] is: read-out: Free fraction in plasma (fP).
Where [3] appears, read: read-out: Plasma protein binding (converted).

T1 sequence (Q5S007 whole entry): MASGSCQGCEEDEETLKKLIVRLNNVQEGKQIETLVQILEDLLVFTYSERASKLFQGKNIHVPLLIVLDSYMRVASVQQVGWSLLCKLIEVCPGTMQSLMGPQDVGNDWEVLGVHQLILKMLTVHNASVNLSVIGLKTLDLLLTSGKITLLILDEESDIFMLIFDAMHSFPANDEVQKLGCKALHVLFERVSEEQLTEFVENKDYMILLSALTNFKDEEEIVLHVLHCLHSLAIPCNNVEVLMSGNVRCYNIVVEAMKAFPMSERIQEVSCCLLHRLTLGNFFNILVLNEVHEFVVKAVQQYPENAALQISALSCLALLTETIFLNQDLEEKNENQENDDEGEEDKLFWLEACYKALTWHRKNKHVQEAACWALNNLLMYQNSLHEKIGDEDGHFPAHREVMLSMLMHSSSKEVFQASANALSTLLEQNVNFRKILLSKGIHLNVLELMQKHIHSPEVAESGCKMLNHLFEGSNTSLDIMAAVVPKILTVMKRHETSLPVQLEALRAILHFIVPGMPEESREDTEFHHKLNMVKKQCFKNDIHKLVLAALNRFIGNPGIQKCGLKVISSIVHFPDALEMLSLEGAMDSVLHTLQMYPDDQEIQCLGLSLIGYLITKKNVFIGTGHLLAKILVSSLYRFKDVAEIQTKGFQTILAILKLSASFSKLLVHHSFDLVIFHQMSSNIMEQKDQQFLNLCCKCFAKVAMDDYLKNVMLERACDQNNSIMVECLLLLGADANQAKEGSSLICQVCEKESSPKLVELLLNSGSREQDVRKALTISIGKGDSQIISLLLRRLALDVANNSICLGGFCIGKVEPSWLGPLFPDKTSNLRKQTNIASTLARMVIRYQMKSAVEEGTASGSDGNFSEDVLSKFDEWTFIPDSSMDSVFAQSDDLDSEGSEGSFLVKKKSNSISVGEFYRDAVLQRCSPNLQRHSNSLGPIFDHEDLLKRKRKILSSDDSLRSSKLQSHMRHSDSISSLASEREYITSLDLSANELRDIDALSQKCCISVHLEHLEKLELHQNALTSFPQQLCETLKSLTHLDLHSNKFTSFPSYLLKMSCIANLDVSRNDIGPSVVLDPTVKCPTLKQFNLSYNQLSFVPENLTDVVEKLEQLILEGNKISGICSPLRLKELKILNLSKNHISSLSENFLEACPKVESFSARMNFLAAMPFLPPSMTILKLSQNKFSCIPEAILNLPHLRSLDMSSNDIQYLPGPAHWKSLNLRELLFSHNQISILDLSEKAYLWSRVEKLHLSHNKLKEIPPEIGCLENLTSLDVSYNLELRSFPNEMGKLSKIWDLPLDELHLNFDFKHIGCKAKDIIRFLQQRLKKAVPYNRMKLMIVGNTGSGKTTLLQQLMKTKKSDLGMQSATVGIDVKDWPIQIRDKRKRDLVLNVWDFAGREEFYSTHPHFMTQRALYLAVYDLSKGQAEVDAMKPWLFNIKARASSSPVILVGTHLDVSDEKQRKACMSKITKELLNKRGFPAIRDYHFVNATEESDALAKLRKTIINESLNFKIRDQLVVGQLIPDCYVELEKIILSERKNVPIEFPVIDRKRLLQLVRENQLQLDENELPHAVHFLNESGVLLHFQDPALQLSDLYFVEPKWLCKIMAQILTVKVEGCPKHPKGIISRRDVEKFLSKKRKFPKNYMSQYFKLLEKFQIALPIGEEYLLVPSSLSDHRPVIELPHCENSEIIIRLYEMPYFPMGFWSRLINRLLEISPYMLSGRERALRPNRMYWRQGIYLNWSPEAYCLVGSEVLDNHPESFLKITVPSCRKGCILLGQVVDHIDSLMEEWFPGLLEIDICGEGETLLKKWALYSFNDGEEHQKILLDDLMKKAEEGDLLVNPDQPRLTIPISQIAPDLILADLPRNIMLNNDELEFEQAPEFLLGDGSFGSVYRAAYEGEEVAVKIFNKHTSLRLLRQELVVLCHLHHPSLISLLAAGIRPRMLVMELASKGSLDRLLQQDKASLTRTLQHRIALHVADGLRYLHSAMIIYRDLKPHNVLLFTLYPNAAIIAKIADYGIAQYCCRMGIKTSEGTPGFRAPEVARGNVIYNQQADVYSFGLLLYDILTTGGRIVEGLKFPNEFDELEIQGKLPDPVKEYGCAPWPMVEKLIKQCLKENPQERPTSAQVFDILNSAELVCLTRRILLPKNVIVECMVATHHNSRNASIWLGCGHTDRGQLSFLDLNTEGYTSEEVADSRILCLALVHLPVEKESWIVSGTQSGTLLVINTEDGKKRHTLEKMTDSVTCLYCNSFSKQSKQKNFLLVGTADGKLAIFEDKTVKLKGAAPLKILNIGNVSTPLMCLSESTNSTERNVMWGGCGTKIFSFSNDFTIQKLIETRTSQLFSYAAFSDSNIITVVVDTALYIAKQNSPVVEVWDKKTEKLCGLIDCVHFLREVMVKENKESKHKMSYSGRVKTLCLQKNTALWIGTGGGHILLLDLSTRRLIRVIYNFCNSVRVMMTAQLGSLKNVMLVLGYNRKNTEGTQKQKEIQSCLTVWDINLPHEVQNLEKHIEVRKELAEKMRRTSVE

As to `C[C@@H]1C[C@@H]([18F])CN1c1c(C#N)c2c(N)nccc2n1C` [[^18F]1, 4-Amino-2-((2R,4R)-4-[^18F]fluoro-2-methylpyrrolidin-1-yl)-1-methyl-1H-pyrrolo[3,2-c]pyridine-3-carbonitrile], the “Binding of radioligand in brain slices (ARG)” value at LRRK2 was “clear binding”. In addition, the fraction unbound at 10 min in data set [1] (setting [2]) and in data set [1] (setting [3]) was ~0.45 in each case.

As to `C[C@@H]1C[C@@H]([18F])CN1c1c(C#N)c2c(N)ncnc2n1C` [[^18F]2, 4-Amino-6-((2R,4R)-4-[^18F]fluoro-2-methyl Pyrrolidin-1-yl)-7-methyl-7H-pyrrolo[2,3-d]pyrimidine-5-carbonitrile], the “Binding of radioligand in brain slices (ARG)” value on LRRK2 was “displayed binding”. Moreover, the fraction unbound at 10 min in data set [1] (setting [2]) and in data set [1] (setting [3]) was ~0.6 in each case.
